From BigSolDB 2.1

Cl.N=C(N)Nc1ccc(C(=O)O)cc1
Conditions | solubility (mole fraction)
in ethanol, 294.95 K | 0.00291
in ethanol, 300.05 K | 0.00316
in ethanol, 305.95 K | 0.00343
in ethanol, 310.25 K | 0.00387
in ethanol, 315.25 K | 0.0042
in ethanol, 320.25 K | 0.00478
in ethanol, 325.55 K | 0.00514
in ethanol, 330.65 K | 0.00558
in isopropanol, 296.35 K | 0.0008
in isopropanol, 301.75 K | 0.00106
in isopropanol, 307.55 K | 0.00127
in isopropanol, 312.95 K | 0.00149
in isopropanol, 317.35 K | 0.00158
in isopropanol, 321.35 K | 0.0017
in isopropanol, 325.15 K | 0.00186
in isopropanol, 328.25 K | 0.00201
in methanol, 297.95 K | 0.0118
in methanol, 302.45 K | 0.0128
in methanol, 307.45 K | 0.0143
in methanol, 312.95 K | 0.0155
in methanol, 317.45 K | 0.017
in methanol, 321.25 K | 0.0181
in methanol, 324.85 K | 0.0192
in methanol, 328.55 K | 0.0203
in n-butanol, 293.25 K | 0.00103
in n-butanol, 296.85 K | 0.00124
in n-butanol, 300.05 K | 0.00137
in n-butanol, 303.15 K | 0.00149
in n-butanol, 307.55 K | 0.00163
in n-butanol, 314.75 K | 0.00182
in n-butanol, 320.15 K | 0.00194
in n-butanol, 327.15 K | 0.00216
in n-pentanol, 292.05 K | 0.00042
in n-pentanol, 296.55 K | 0.00071
in n-pentanol, 301.75 K | 0.0008
in n-pentanol, 310.05 K | 0.00096
in n-pentanol, 316.75 K | 0.00103
in n-pentanol, 322.95 K | 0.00114
in n-pentanol, 327.95 K | 0.00121
in n-pentanol, 334.15 K | 0.00136
in n-propanol, 295.05 K | 0.00368
in n-propanol, 300.75 K | 0.00436
in n-propanol, 305.75 K | 0.00495
in n-propanol, 309.95 K | 0.00564
in n-propanol, 314.55 K | 0.00633
in n-propanol, 319.35 K | 0.00716
in n-propanol, 322.85 K | 0.00753
in n-propanol, 327.75 K | 0.00815
in water, 298.05 K | 0.00532
in water, 304.55 K | 0.00685
in water, 309.95 K | 0.00884
in water, 314.85 K | 0.0108
in water, 318.55 K | 0.0129
in water, 323.55 K | 0.0155
in water, 328.85 K | 0.018
in water, 333.65 K | 0.0218
